Experiment [1] addresses canine MC4R (canine). The experiment in a line: cell-based or functional assay.
The test system of experiment [2] is Obese Beagle Dogs. Briefly: Indirect calorimetry following ICV injection in lateral ventricle cannulated dogs. Format: in vivo, dog. The conditions noted are these: NDP-MSH 75 mol. The text has this:
(§1) Healthy, (1-3 years of age) male and female beagles (Marshall Farms, North Rose N.Y.) weighing 11-15 kg were employed as test subjects. The animals were surgically implanted with lateral ventricle cannulas using standard techniques. Wilsson-Rahmberg et al., 1998, J. Investigative Surgery, 11:207-214. Cannula placement and patency were confirmed with fluoroscopy. The dogs were housed individually in standard caging meeting or exceeding the USDA regulations (U.S. Department of Agriculture, Animal Welfare, Final Rules. 9 C.F.R. Parts 1-3,1995).
Each subject received a single 50 μl injection in one lateral ventricle (ICV injection) of one of 3 solutions: 30-100 nmol of the non-specific melanocortin (MC) receptor agonist [N1 e^4, D-Phe^7]-α-MSH (hereinafter “NDP-MSH,” Bachem Bioscience Inc., King of Prussia Pa.), 1-2 nmol of the MC3/4 receptor antagonist SHU-9119 (Bachem Bioscience Inc., King of Prussia, Pa.) or vehicle which consisted of artificial cerebrospinal fluid (hereinafter “aCSF,” Harvard Apparatus, Holliston, Mass.). NDP-MSH and SHU-9119 were received as a dry powder and were reconstituted with aCSF to achieve an appropriate concentration for a ^50 μl injection. Following ICV injection, resulting effects on food intake or metabolic rate were determined.
The studies consisted of one group of animals containing five dogs. In study 1, dogs received either NDP-MSH or aCSF on day 0 in a cross-over design with two dogs receiving NDP-MSH first and three dogs receiving aCSF first. Resulting effects on food intake were determined. In study 2, dogs received either SHU-9119 or aCSF on day 0 in a cross-over design with two dogs receiving SHU-9119 first and three dogs receiving aCSF first. Resulting effects on food intake were determined. In study 3, dogs received either NDP-MSH or aCSF on day 0 in a cross-over design with three dogs receiving NDP-MSH first and two dogs receiving aCSF first. Resulting effects on metabolic rate were determined. In study 4, dogs received either SHU-9119 or aCSF on day 0 in a cross-over design with three dogs receiving SHU-9119 first and two dogs receiving aCSF first. Resulting effects on metabolic rate were determined. Each test animal was permitted ad libitum access to water and IAMS […]® (The IAMS Company, Dayton Ohio) dry food each day during the study unless otherwise noted.
Reduction or increase in metabolic rate was measured by standard indirect calorimetry using an open circuit calorimeter (OXYMAX DELUXE@, Columbus Instruments, Columbus Ohio). Dogs were fasted for approximately 18 hours prior to ICV injection. Calorimetry sessions were initiated approximately 2 hours after ICV injection and lasted for 60-90 minutes.

The subject of experiment [3] is Obese Beagle Dogs. Briefly: 24 hr food intake following ICV injection in lateral ventricle cannulated dogs. Conditions: NDP-MSH 100 nmol. Type of experiment: in vivo, dog.
Text: as §1
Each subject received a single 50 μl injection in one lateral ventricle (ICV injection) of one of 3 solutions: 30-100 nmol of the non-specific melanocortin (MC) receptor agonist [N1 e^4, D-Phe^7]-α-MSH (hereinafter “NDP-MSH,” Bachem Bioscience Inc., King of Prussia Pa.), 1-2 nmol of the MC3/4 receptor antagonist SHU-9119 (Bachem Bioscience Inc., King of Prussia, Pa.) or vehicle which consisted of artificial cerebrospinal fluid (hereinafter “aCSF,” Harvard Apparatus, Holliston, Mass.). […] Following ICV injection, resulting effects on food intake or metabolic rate were determined.
The studies consisted of one group of animals containing five dogs. […] Resulting effects on food intake were determined. […] Resulting effects on food intake were determined. […] Resulting effects on metabolic rate were determined. […] Resulting effects on metabolic rate were determined. […]

For experiment [4], the target named is canine MC4R (canine).
For experiment [5], the target named is T1, hMC3R (Homo sapiens, UniProt P41968).
Target sequence in this assay (P41968 whole entry): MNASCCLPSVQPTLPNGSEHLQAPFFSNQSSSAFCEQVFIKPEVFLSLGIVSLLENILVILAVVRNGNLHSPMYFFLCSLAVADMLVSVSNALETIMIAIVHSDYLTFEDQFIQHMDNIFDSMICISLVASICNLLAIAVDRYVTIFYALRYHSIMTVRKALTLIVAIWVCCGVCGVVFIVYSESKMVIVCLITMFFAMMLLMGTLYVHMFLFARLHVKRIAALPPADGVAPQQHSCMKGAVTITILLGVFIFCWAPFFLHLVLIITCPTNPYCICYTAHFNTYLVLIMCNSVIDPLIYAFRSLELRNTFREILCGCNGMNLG
The test system of experiment [6] is cMC4R. Briefly: FLIPR calcium release assay in HEK293a/cMC4R/Gα15, Gα16 cells. The conditions noted are these: read-out: EC50, agonist stimulated calcium release; HEK293a/cMC4R/Gα15, Gα16, Fluo-4.
In experiment [7] the target is canine MC4R (Canis lupus familiaris, UniProt A0A2Z6BEC9). The conditions noted are these: 1 pM α-MSH.
Experiment [8] addresses T2, hMC4R (Homo sapiens, UniProt P32245).
Target sequence in this assay (P32245 whole entry): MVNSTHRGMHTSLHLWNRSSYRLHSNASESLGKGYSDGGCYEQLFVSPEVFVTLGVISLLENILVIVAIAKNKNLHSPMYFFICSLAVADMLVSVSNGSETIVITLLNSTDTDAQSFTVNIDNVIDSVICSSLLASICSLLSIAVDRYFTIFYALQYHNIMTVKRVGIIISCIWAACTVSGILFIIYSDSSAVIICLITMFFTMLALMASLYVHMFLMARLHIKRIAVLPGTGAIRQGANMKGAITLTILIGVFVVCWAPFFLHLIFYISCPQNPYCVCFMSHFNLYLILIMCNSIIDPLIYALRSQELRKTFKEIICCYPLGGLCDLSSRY
Experiment [9] deals with T2, hMC4R. The source holds these as a separate data set.
Target sequence in this assay (P32245 whole entry): as above
Experiment [10] deals with T1, hMC3R. The experiment in a line: hMC3R. On the set-up: expressed in transfected cells; host or cells: HEK293.
Target sequence in this assay (P41968 whole entry, looked up): as the sequence (P41968 whole entry) above
Experiment [11] deals with T2, hMC4R. The experiment in a line: hMC4R. On the set-up: expressed in transfected cells; host or cells: HEK293.
Target sequence in this assay (P32245 whole entry, looked up): as the sequence (P32245 whole entry) above
In experiment [12] the test system is cMC4R. The experiment in a line: cMC4R.
Experiment [13] has as its target T1, hMC3R. This is another data set of the same source.
Target sequence in this assay (P41968 whole entry): as the sequence (P41968 whole entry) above
Where [14] appears, read: ICV injection, SHU 9119 2 nmol, about 2 hours after injection, fasted dogs.
Where [15] appears, read: versus aCSF control, SHU 9119 2 nmol ICV.

As usually defined, the IC50 is the concentration that gives 50% inhibition. A high value points to weaker potency in that assay. As a reminder, the EC50 is the midpoint of the concentration-response curve.

Like-named read-outs stand apart in the source and are kept apart here. Marks after values point to notes of the source that are not given here. Residues, ends and D or L forms follow the SMILES beside them.

Sequence of canine MC4R (canine) (Q0Z8I9 other isoform, or with tags, fused parts or gaps): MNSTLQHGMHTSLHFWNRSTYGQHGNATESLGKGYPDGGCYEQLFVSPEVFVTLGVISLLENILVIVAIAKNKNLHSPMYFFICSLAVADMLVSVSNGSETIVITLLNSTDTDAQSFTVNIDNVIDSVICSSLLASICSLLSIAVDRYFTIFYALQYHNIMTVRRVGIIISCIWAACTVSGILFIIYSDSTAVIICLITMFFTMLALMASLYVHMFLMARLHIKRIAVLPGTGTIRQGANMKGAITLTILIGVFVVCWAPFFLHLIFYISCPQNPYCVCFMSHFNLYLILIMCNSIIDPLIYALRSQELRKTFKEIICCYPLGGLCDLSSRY
Sequence of canine MC4R (A0A2Z6BEC9 1-332): as the sequence (Q0Z8I9 other isoform, or with tags, fused parts or gaps) above

On to “α-MSH (from UniProt P01189 138-150) (peptide)”, for which, in [1], the EC50, agonist stimulated calcium release (FLIPR, HEK293a/cMC4R/Gα15, Gα16 cells) was found to be 55 nM; the cAMP, fold over negative control cells is 10 fold; the concentration of cAMP in α-MSH treated cells (1.5×10^6 cells/ml) came out at 13.8 pmol/mL.
As to SHU9119, in experiment [2] (setting [14]), the “Heat Produced, Average” value came out at 13 kcal/h and the “VO2, Average” value was found to be 3.6 mL/min/kg. In addition, in experiment [2] (setting [15]), the “Heat Produced, % Change” value was −37* % and the “VO2, % Change” value is listed as −38* %. In addition, the “24 hr Food Intake, Average” value in experiment [3] (ICV injection, SHU 9119 2 nmol) stood at 366 g. The “24 hr Food Intake, % Change” value in experiment [3] (setting [15]) is reported as “+132* %”.
For JKC363 (peptide), the IC50 in [4] is 1.27 nM; in [5], 22.8 nM.
MTII (peptide): the 50% inhibitory concentration (IC50) in experiment [4] was 0.877 nM. Besides, in [1], the EC50, agonist stimulated calcium release (FLIPR, HEK293a/cMC4R/Gα15, Gα16 cells) was determined as 10 nM.
MTII: in experiment [6], the EC50 was determined as 10 nM.
As to α-MSH, the “concentration of cAMP” value in [7] (30 minutes, most concentrated batch of cells (1.5×10^6 cells/ml)) is 13.82 pmol/mL. In addition, the “cAMP levels over background” value in [7] (cells at each concentration (0.5, 1.0, 1.5×10^6 cells/ml)) was “significant increase”. The “difference in cAMP versus negative control cells” value in [7] (most concentrated batch of cells) is on record as “almost ten-fold”. The EC50 in experiment [6] is 55 nM.
Consider SHU9119 (peptide), for which the results for the half-inhibitory concentration (IC50) in experiment [8] and in experiment [5] were 0.0116 nM and 0.188 nM, respectively. Besides, the IC50, antagonist inhibition of calcium release in the presence of 20 nM NDP-MSH agonist (FLIPR) in [1] was 2 nM.
For `N=C(N)NCCC[C@@H]1NC(=O)[C@@H](Cc2ccc3ccccc3c2)NC(=O)[C@H](Cc2c[nH]cn2)NC(=O)[C@H](CCC(=O)O)NC(=O)CCSSC[C@@H](C(=O)N2CCC[C@H]2C(=O)N2CCC[C@H]2C(=O)N[C@@H](CCCCN)C(=O)N[C@@H](CC(=O)O)C(N)=O)NC(=O)CNC(=O)[C@H](Cc2c[nH]c3ccccc23)NC1=O` [JKC363] (HELM PEPTIDE1{[O=C(CCS[*:3])[*:2]].E.H.[O=C([C@@H](Cc1ccc2ccccc2c1)N[*:1])[*:2]].R.W.G.C.P.P.K.D.[am]}$PEPTIDE1,PEPTIDE1,1:R3-8:R3$$$V2.0; C-terminus assumed), the concentration for half-maximal inhibition (IC50) in experiment [9] came to 2.11 nM; in experiment [10], 15.1 nM; in [11], 1.31 nM; in experiment [12], 0.971 nM; in experiment [13], 22.7 nM.

These data come from US20030032791A1, “Novel melanocortin-4 receptor sequences and screening assays to identify compounds useful in regulating animal appetite and metabolic rate” (priority 2000, published 2003).
